Results from ChEMBL document CHEMBL4602645, “Design, synthesis and evaluation of diosgenin carbamate derivatives as multitarget anti-Alzheimer's disease agents” (2020).
Activity calls are given as the source filed them. No cut-off for these calls is given here.

Columns and labels:
SH-SY5Y = experiment: Neuroprotective activity against H2O2-induced cytotoxicity in human SH-SY5Y cells assessed as cell viability at 10 uM pretreated for 2 hrs followed by H2O2 challenge and measured after 24 hrs by MTT assay relative to control; type: functional; settings: for viability at 10 µM: read-out: Activity
RAW264.7 = experiment: Antiinflammatory activity in mouse RAW264.7 cells assessed as inhibition of LPS-induced nitric oxide production at 10 uM preincubated for 2 hrs followed by LPS stimulation and measured after 24 hrs by Griess assay relative to control; type: functional

Compound | viability at 10 µM (SH-SY5Y) | inhibition at 10 µM (RAW264.7) | Activity (SH-SY5Y)
COc1cccc(CNC(=O)O[C@H]2CC[C@@]3(C)C(=CC[C@H]4[C@@H]5C[C@@H]6O[C@]7(CC[C@@H](C)CO7)[C@@H](C)[C@@H]6[C@@]5(C)CC[C@@H]43)C2)c1 | 38.8% | 9.8% | 
C[C@@H]1CC[C@@]2(OC1)O[C@H]1C[C@H]3[C@@H]4CC=C5C[C@@H](OC(=O)NCc6cnccn6)CC[C@]5(C)[C@H]4CC[C@]3(C)[C@H]1[C@@H]2C | 22.3% |  | 
C[C@@H]1CC[C@@]2(OC1)O[C@H]1C[C@H]3[C@@H]4CC=C5C[C@@H](OC(=O)N6CCCCC6)CC[C@]5(C)[C@H]4CC[C@]3(C)[C@H]1[C@@H]2C | 36.7% | 12% | 
COc1ccccc1CNC(=O)O[C@H]1CC[C@@]2(C)C(=CC[C@H]3[C@@H]4C[C@@H]5O[C@]6(CC[C@@H](C)CO6)[C@@H](C)[C@@H]5[C@@]4(C)CC[C@@H]32)C1 | 11.3% |  | 
C[C@@H]1CC[C@@]2(OC1)O[C@H]1C[C@H]3[C@@H]4CC=C5C[C@@H](OC(=O)N6CCN(Cc7ccc(O)cc7)CC6)CC[C@]5(C)[C@H]4CC[C@]3(C)[C@H]1[C@@H]2C | 9.7% |  | 
Cc1ccccc1CNC(=O)O[C@H]1CC[C@@]2(C)C(=CC[C@H]3[C@@H]4C[C@@H]5O[C@]6(CC[C@@H](C)CO6)[C@@H](C)[C@@H]5[C@@]4(C)CC[C@@H]32)C1 | 7.9% |  | 
COc1cc(CN2CCN(C(=O)O[C@H]3CC[C@@]4(C)C(=CC[C@H]5[C@@H]6C[C@@H]7O[C@]8(CC[C@@H](C)CO8)[C@@H](C)[C@@H]7[C@@]6(C)CC[C@@H]54)C3)CC2)ccc1O | 23.1% |  | 
C[C@@H]1CC[C@@]2(OC1)O[C@H]1C[C@H]3[C@@H]4CC=C5C[C@@H](OC(=O)NC6CC6)CC[C@]5(C)[C@H]4CC[C@]3(C)[C@H]1[C@@H]2C |  |  | inactive
COc1ccc(CN2CCN(C(=O)O[C@H]3CC[C@@]4(C)C(=CC[C@H]5[C@@H]6C[C@@H]7O[C@]8(CC[C@@H](C)CO8)[C@@H](C)[C@@H]7[C@@]6(C)CC[C@@H]54)C3)CC2)cc1 |  |  | inactive
C[C@@H]1CC[C@@]2(OC1)O[C@H]1C[C@H]3[C@@H]4CC=C5C[C@@H](O)CC[C@]5(C)[C@H]4CC[C@]3(C)[C@H]1[C@@H]2C [DISOGENIN] | 6.7% |  | 
C[C@@H]1CC[C@@]2(OC1)O[C@H]1C[C@H]3[C@@H]4CC=C5C[C@@H](OC(=O)NCc6ccccc6F)CC[C@]5(C)[C@H]4CC[C@]3(C)[C@H]1[C@@H]2C | 21% |  | 
C[C@@H]1CC[C@@]2(OC1)O[C@H]1C[C@H]3[C@@H]4CC=C5C[C@@H](OC(=O)N6CCN(Cc7ccccc7)CC6)CC[C@]5(C)[C@H]4CC[C@]3(C)[C@H]1[C@@H]2C | 11.2% |  | 
C[C@@H]1CC[C@@]2(OC1)O[C@H]1C[C@H]3[C@@H]4CC=C5C[C@@H](OC(=O)NCc6ccccc6Cl)CC[C@]5(C)[C@H]4CC[C@]3(C)[C@H]1[C@@H]2C | 8.9% |  | 
C[C@@H]1CC[C@@]2(OC1)O[C@H]1C[C@H]3[C@@H]4CC=C5C[C@@H](OC(=O)N(C)Cc6ccc(F)cc6)CC[C@]5(C)[C@H]4CC[C@]3(C)[C@H]1[C@@H]2C | 10.7% |  | 
COc1ccc(CN(C)C(=O)O[C@H]2CC[C@@]3(C)C(=CC[C@H]4[C@@H]5C[C@@H]6O[C@]7(CC[C@@H](C)CO7)[C@@H](C)[C@@H]6[C@@]5(C)CC[C@@H]43)C2)cc1 | 19.4% |  | 
Cc1cccc(CNC(=O)O[C@H]2CC[C@@]3(C)C(=CC[C@H]4[C@@H]5C[C@@H]6O[C@]7(CC[C@@H](C)CO7)[C@@H](C)[C@@H]6[C@@]5(C)CC[C@@H]43)C2)c1 | 14.2% |  | 

Compound | viability at 10 µM (SH-SY5Y) | inhibition at 10 µM (RAW264.7) | Activity (SH-SY5Y)
C[C@@H]1CC[C@@]2(OC1)O[C@H]1C[C@H]3[C@@H]4CC=C5C[C@@H](OC(=O)N6CCN(Cc7ccc(Cl)cc7)CC6)CC[C@]5(C)[C@H]4CC[C@]3(C)[C@H]1[C@@H]2C | 4.5% |  | 
CC(C)CN(C)C(=O)O[C@H]1CC[C@@]2(C)C(=CC[C@H]3[C@@H]4C[C@@H]5O[C@]6(CC[C@@H](C)CO6)[C@@H](C)[C@@H]5[C@@]4(C)CC[C@@H]32)C1 | 17.7% |  | 
Cc1ccc(CNC(=O)O[C@H]2CC[C@@]3(C)C(=CC[C@H]4[C@@H]5C[C@@H]6O[C@]7(CC[C@@H](C)CO7)[C@@H](C)[C@@H]6[C@@]5(C)CC[C@@H]43)C2)cc1 | 26.3% |  | 
Cc1ccc(CN(C)C(=O)O[C@H]2CC[C@@]3(C)C(=CC[C@H]4[C@@H]5C[C@@H]6O[C@]7(CC[C@@H](C)CO7)[C@@H](C)[C@@H]6[C@@]5(C)CC[C@@H]43)C2)cc1 |  |  | inactive
CCN(C)C(=O)O[C@H]1CC[C@@]2(C)C(=CC[C@H]3[C@@H]4C[C@@H]5O[C@]6(CC[C@@H](C)CO6)[C@@H](C)[C@@H]5[C@@]4(C)CC[C@@H]32)C1 | 4.3% |  | 
C[C@@H]1CC[C@@]2(OC1)O[C@H]1C[C@H]3[C@@H]4CC=C5C[C@@H](OC(=O)NCc6ccc(C(F)(F)F)cc6)CC[C@]5(C)[C@H]4CC[C@]3(C)[C@H]1[C@@H]2C |  |  | inactive
C[C@@H]1CC[C@@]2(OC1)O[C@H]1C[C@H]3[C@@H]4CC=C5C[C@@H](OC(=O)N6CCN(Cc7ccc(F)cc7)CC6)CC[C@]5(C)[C@H]4CC[C@]3(C)[C@H]1[C@@H]2C | 5.4% |  | 
C[C@@H]1CC[C@@]2(OC1)O[C@H]1C[C@H]3[C@@H]4CC=C5C[C@@H](OC(=O)NC(C)(C)C)CC[C@]5(C)[C@H]4CC[C@]3(C)[C@H]1[C@@H]2C | 7.7% |  | 
CCNC(=O)O[C@H]1CC[C@@]2(C)C(=CC[C@H]3[C@@H]4C[C@@H]5O[C@]6(CC[C@@H](C)CO6)[C@@H](C)[C@@H]5[C@@]4(C)CC[C@@H]32)C1 | 10.9% |  | 
CC(C)CNC(=O)O[C@H]1CC[C@@]2(C)C(=CC[C@H]3[C@@H]4C[C@@H]5O[C@]6(CC[C@@H](C)CO6)[C@@H](C)[C@@H]5[C@@]4(C)CC[C@@H]32)C1 | 25.3% |  | 
C[C@@H]1CC[C@@]2(OC1)O[C@H]1C[C@H]3[C@@H]4CC=C5C[C@@H](OC(=O)NCc6cccc(Cl)c6)CC[C@]5(C)[C@H]4CC[C@]3(C)[C@H]1[C@@H]2C | 13.7% |  | 
C[C@@H]1CC[C@@]2(OC1)O[C@H]1C[C@H]3[C@@H]4CC=C5C[C@@H](OC(=O)NCc6cccc(F)c6)CC[C@]5(C)[C@H]4CC[C@]3(C)[C@H]1[C@@H]2C | 27.4% |  | 
C[C@@H]1CC[C@@]2(OC1)O[C@H]1C[C@H]3[C@@H]4CC=C5C[C@@H](OC(=O)NC6CCCC6)CC[C@]5(C)[C@H]4CC[C@]3(C)[C@H]1[C@@H]2C | 3.3% |  | 
C[C@@H]1CC[C@@]2(OC1)O[C@H]1C[C@H]3[C@@H]4CC=C5C[C@@H](OC(=O)N6CCN(C)CC6)CC[C@]5(C)[C@H]4CC[C@]3(C)[C@H]1[C@@H]2C | 3.6% |  | 
C[C@@H]1CC[C@@]2(OC1)O[C@H]1C[C@H]3[C@@H]4CC=C5C[C@@H](OC(=O)NCc6cccnc6)CC[C@]5(C)[C@H]4CC[C@]3(C)[C@H]1[C@@H]2C | 3.5% |  | 
